In PubChem BioAssay AID1963447 (Molecular Pharmacology Branch, DTP, NCI, 2024):
“And” between values parts separate entries of the source, which are not always exact repeats. Equal values may be shown once.

Tested on: 885512-296-R-J2-PDC complex spheroid growth, % test/control
Test: Anticancer human tumor 885512-296-R-J2-PDC patient-derived breast carcinoma cell line growth inhibition [Asc]
Details: for viability, T/C: stronger effect = lower value
Summary of the method: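 Tumor cells were grown as multicellular spheroids with stromal HUVEC and mesenchymal stem cells and treated singly or in combination. Concentrations fell in half-log steps from the clinical Cmax, or from 10 microM where none was known.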

[1] = curve of first compound, second compound 0.1 µM
[2] = curve of first compound, second compound 0.316 µM
[3] = curve of first compound, second compound 1 µM
[4] = curve of first compound, second compound 3.16 µM
[5] = curve of first compound, second compound 10 µM
[6] = second compound 0.1 µM, first compound 0.00316 µM
[7] = second compound 0.1 µM, first compound 0.01 µM
[8] = second compound 0.1 µM, first compound 0.0316 µM
[9] = second compound 0.1 µM, first compound 0.1 µM
[10] = second compound 0.1 µM, first compound 0.316 µM
[11] = second compound 0.1 µM, first compound 1 µM
[12] = second compound 0.316 µM, first compound 0.00316 µM
[13] = second compound 0.316 µM, first compound 0.01 µM
[14] = second compound 0.316 µM, first compound 0.0316 µM
[15] = second compound 0.316 µM, first compound 0.1 µM
[16] = second compound 0.316 µM, first compound 0.316 µM
[17] = second compound 0.316 µM, first compound 1 µM
[18] = second compound 1 µM, first compound 0.00316 µM
[19] = second compound 1 µM, first compound 0.01 µM
[20] = second compound 1 µM, first compound 0.0316 µM
[21] = second compound 1 µM, first compound 0.1 µM
[22] = second compound 1 µM, first compound 0.316 µM
[23] = second compound 1 µM, first compound 1 µM
[24] = second compound 3.16 µM, first compound 0.00316 µM
[25] = second compound 3.16 µM, first compound 0.01 µM
[26] = second compound 3.16 µM, first compound 0.0316 µM
[27] = second compound 3.16 µM, first compound 0.1 µM
[28] = second compound 3.16 µM, first compound 0.316 µM
[29] = second compound 3.16 µM, first compound 1 µM
[30] = second compound 10 µM, first compound 0.00316 µM
[31] = second compound 10 µM, first compound 0.01 µM
[32] = second compound 10 µM, first compound 0.0316 µM
[33] = second compound 10 µM, first compound 0.1 µM
[34] = second compound 10 µM, first compound 0.316 µM
[35] = second compound 10 µM, first compound 1 µM
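Further: spheroids exposed to compounds for seven days.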
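Wherever viability, T/C is given: 100% = DMSO vehicle control wells.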

`O=C(c1ccc(F)c(F)c1Nc1ccc(I)cc1F)N1CC(O)([C@@H]2CCCCN2)C1` + Cc1c(S(C)(=O)=O)c(-c2cc(F)cc(N3CCN(c4ccc(NS(=O)(=O)c5ccc(NC(CCN6CCC(C(=O)OCCCP(=O)(O)O)CC6)CSc6ccccc6)c(S(=O)(=O)C(F)(F)F)c5)cc4)CC3)c2)c(-c2ccc(Cl)cc2)n1C(C)C showed an IC50 [1] of 121 nM, an IC50 [2] of 94.1 nM and an IC50 [3] of 89 nM. The IC50 [4] was 77.9 nM, the IC50 [5] was 452 nM and the viability, T/C [6] was 77.6%. The viability, T/C [7] was 82.5%, the viability, T/C [8] was 69.9% and the viability, T/C [9] was 50.8%. It also gave a viability, T/C [10] of 34%, a viability, T/C [11] of 13.1% and a viability, T/C [12] of 94%. For the same compound, the viability, T/C [13] was 88.8%, the viability, T/C [14] was 63.6% and the viability, T/C [15] was 51.9%. It also gave a viability, T/C [16] of 28.7%, a viability, T/C [17] of 13.7% and a viability, T/C [18] of 86.9%. It also gave a viability, T/C [19] of 68.7%, a viability, T/C [20] of 68.1% and a viability, T/C [21] of 48.4%. For the same compound, the viability, T/C [22] was 30.2%, the viability, T/C [23] was 12.2% and the viability, T/C [24] was 102%. The viability, T/C [25] was 86.8%, the viability, T/C [26] was 55.1% and the viability, T/C [27] was 51.5%. For the same compound, the viability, T/C [28] was 30.4%, the viability, T/C [29] was 11.2% and the viability, T/C [30] was 111%. It also gave a viability, T/C [31] of 109%, a viability, T/C [32] of 99.2% and a viability, T/C [33] of 96.1%. The viability, T/C [34] was 64.2% and the viability, T/C [35] was 16.4%.

`Cn1ncnc1[C@H]1c2n[nH]c(=O)c3cc(F)cc(c23)N[C@@H]1c1ccc(F)cc1` was tested, and the viability, T/C (compound 0.000316 µM) was 101% and 86.7% and 96.2%, the viability, T/C (compound 0.001 µM) was 86.5% and 84.3% and 90.5% and the viability, T/C (compound 0.00316 µM) was 71.1% and 82.5% and 93.2%. The viability, T/C (compound 0.01 µM) was 70.2% and 73% and 67.9%, the viability, T/C (compound 0.0316 µM) was 53.5% and 54.3% and 57.9% and the viability, T/C (compound 0.1 µM) was 31.4% and 38.2% and 34.5%. The IC50 (curve of compound) was 32.3 nM and 43.3 nM and 42.2 nM.

For `C=C(F)C(=O)N1CCN(c2nc(OCC3CCCN3C)nc3c2CCN(c2cccc4cccc(Cl)c24)C3)CC1CC#N` (configuration not stated) + Cc1c(S(C)(=O)=O)c(-c2cc(F)cc(N3CCN(c4ccc(NS(=O)(=O)c5ccc(NC(CCN6CCC(C(=O)OCCCP(=O)(O)O)CC6)CSc6ccccc6)c(S(=O)(=O)C(F)(F)F)c5)cc4)CC3)c2)c(-c2ccc(Cl)cc2)n1C(C)C, the IC50 [1] was 1870 nM, the IC50 [2] was 1920 nM and the IC50 [3] was 1910 nM. For the same compound, the IC50 [4] was 1820 nM, the IC50 [5] was 2140 nM and the viability, T/C [8] was 85.7%. The viability, T/C [9] was 91%, the viability, T/C [10] was 93.2% and the viability, T/C [11] was 85.9%. The viability, T/C (second compound 0.1 µM, first compound 3.16 µM) was 19.7%, the viability, T/C (second compound 0.1 µM, first compound 10 µM) was 0.11% and the viability, T/C [14] was 76.3%. For the same compound, the viability, T/C [15] was 96.2%, the viability, T/C [16] was 95% and the viability, T/C [17] was 90.5%. For the same compound, the viability, T/C (second compound 0.316 µM, first compound 3.16 µM) was 19.7%, the viability, T/C (second compound 0.316 µM, first compound 10 µM) was 0.13% and the viability, T/C [20] was 83.2%. The viability, T/C [21] was 84.9%, the viability, T/C [22] was 97.1% and the viability, T/C [23] was 91.5%. The viability, T/C (second compound 1 µM, first compound 3.16 µM) was 19.5%, the viability, T/C (second compound 1 µM, first compound 10 µM) was 0.12% and the viability, T/C [26] was 101%. The viability, T/C [27] was 90.3%, the viability, T/C [28] was 92.1% and the viability, T/C [29] was 82.6%. It also gave a viability, T/C (second compound 3.16 µM, first compound 3.16 µM) of 20.3%, a viability, T/C (second compound 3.16 µM, first compound 10 µM) of 0.12% and a viability, T/C [32] of 115%. The viability, T/C [33] was 107%, the viability, T/C [34] was 96.5% and the viability, T/C [35] was 100%. The viability, T/C (second compound 10 µM, first compound 3.16 µM) was 24.4% and the viability, T/C (second compound 10 µM, first compound 10 µM) was 0.18%.

Work on `COc1c(OCCCN2CCOCC2)ccc2c3n(c(=NC(=O)c4cnc(N)nc4)nc12)CCN3` + Cc1c(S(C)(=O)=O)c(-c2cc(F)cc(N3CCN(c4ccc(NS(=O)(=O)c5ccc(NC(CCN6CCC(C(=O)OCCCP(=O)(O)O)CC6)CSc6ccccc6)c(S(=O)(=O)C(F)(F)F)c5)cc4)CC3)c2)c(-c2ccc(Cl)cc2)n1C(C)C yielded an IC50 [1] of 263 nM, an IC50 [2] of 255 nM and an IC50 [3] of 238 nM. For the same compound, the IC50 [4] was 224 nM, the IC50 [5] was 247 nM and the viability, T/C [6] was 95.2%. For the same compound, the viability, T/C [7] was 87.2%, the viability, T/C [8] was 95.9% and the viability, T/C [9] was 69.3%. It also gave a viability, T/C [10] of 47%, a viability, T/C [11] of 4.94% and a viability, T/C [12] of 91.2%. It also gave a viability, T/C [13] of 93.5%, a viability, T/C [14] of 79.3% and a viability, T/C [15] of 79%. It also gave a viability, T/C [16] of 43.2%, a viability, T/C [17] of 5.3% and a viability, T/C [18] of 98.8%. For the same compound, the viability, T/C [19] was 101%, the viability, T/C [20] was 84% and the viability, T/C [21] was 70.2%. For the same compound, the viability, T/C [22] was 43.9%, the viability, T/C [23] was 5.16% and the viability, T/C [24] was 92.4%. For the same compound, the viability, T/C [25] was 87.5%, the viability, T/C [26] was 77.5% and the viability, T/C [27] was 73.5%. It also gave a viability, T/C [28] of 40%, a viability, T/C [29] of 5.34% and a viability, T/C [30] of 117%. For the same compound, the viability, T/C [31] was 112%, the viability, T/C [32] was 96.2% and the viability, T/C [33] was 81%. It also gave a viability, T/C [34] of 40.7% and a viability, T/C [35] of 4.02%.

In the case of `CCN1C(C(=O)NC23CCC(C(=O)O)(CC2)CC3)C(c2cccc(Cl)c2F)C2(C(=O)Nc3cc(Cl)ccc32)C12CCCCC2` (configuration not stated) + CNC(C)C(=O)NC1CN(S(=O)(=O)c2cccc(S(=O)(=O)N3CCC4CCC(C(=O)NC(c5ccccc5)c5ccccc5)N4C(=O)C(NC(=O)C(C)NC)C3)c2)CCC2CCC(C(=O)NC(c3ccccc3)c3ccccc3)N2C1=O, the IC50 (curve of first compound, second compound 0.01 µM) is reported as over 3000 nM, the IC50 (curve of first compound, second compound 0.0316 µM) is reported as 2970 nM and the IC50 [1] is reported as over 3000 nM. It also gave an IC50 [2] of over 3000 nM, an IC50 [3] of over 3000 nM and a viability, T/C (second compound 0.01 µM, first compound 0.00949 µM) of 85.2%. It also gave a viability, T/C (second compound 0.01 µM, first compound 0.03 µM) of 77.7%, a viability, T/C (second compound 0.01 µM, first compound 0.0949 µM) of 87% and a viability, T/C (second compound 0.01 µM, first compound 0.3 µM) of 84%. For the same compound, the viability, T/C (second compound 0.01 µM, first compound 0.949 µM) was 67%, the viability, T/C (second compound 0.01 µM, first compound 3 µM) was 53.5% and the viability, T/C (second compound 0.0316 µM, first compound 0.00949 µM) was 103%. For the same compound, the viability, T/C (second compound 0.0316 µM, first compound 0.03 µM) was 98.3%, the viability, T/C (second compound 0.0316 µM, first compound 0.0949 µM) was 88.7% and the viability, T/C (second compound 0.0316 µM, first compound 0.3 µM) was 97.2%. It also gave a viability, T/C (second compound 0.0316 µM, first compound 0.949 µM) of 84.7%, a viability, T/C (second compound 0.0316 µM, first compound 3 µM) of 49.4% and a viability, T/C (second compound 0.1 µM, first compound 0.00949 µM) of 98.7%. It also gave a viability, T/C (second compound 0.1 µM, first compound 0.03 µM) of 107%, a viability, T/C (second compound 0.1 µM, first compound 0.0949 µM) of 108% and a viability, T/C (second compound 0.1 µM, first compound 0.3 µM) of 104%. The viability, T/C (second compound 0.1 µM, first compound 0.949 µM) was 77.2%, the viability, T/C (second compound 0.1 µM, first compound 3 µM) was 51.7% and the viability, T/C (second compound 0.316 µM, first compound 0.00949 µM) was 104%. For the same compound, the viability, T/C (second compound 0.316 µM, first compound 0.03 µM) was 103%, the viability, T/C (second compound 0.316 µM, first compound 0.0949 µM) was 111% and the viability, T/C (second compound 0.316 µM, first compound 0.3 µM) was 97.9%. For the same compound, the viability, T/C (second compound 0.316 µM, first compound 0.949 µM) was 86%, the viability, T/C (second compound 0.316 µM, first compound 3 µM) was 57.8% and the viability, T/C (second compound 1 µM, first compound 0.00949 µM) was 104%. The viability, T/C (second compound 1 µM, first compound 0.03 µM) was 118%, the viability, T/C (second compound 1 µM, first compound 0.0949 µM) was 111% and the viability, T/C (second compound 1 µM, first compound 0.3 µM) was 101%. The viability, T/C (second compound 1 µM, first compound 0.949 µM) was 90% and the viability, T/C (second compound 1 µM, first compound 3 µM) was 60.3%.
